Laboratory results from patent US8163909B2, “Substituted hydroxyethyl amine compounds as beta-secretase modulators and methods of use” (Amgen Inc., priority 2007, dated 2012).
Read-outs that look alike come from different tables or passages of the source.

How the values were obtained:
[1] = Microsomal stability assay, human liver microsomes; settings: human liver microsomal data;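 also: pooled human liver microsomes at 0.25 mg/mL with 1 µM compound and NADPH at 37 °C, pH 7.4, for 30 min, unchanged parent quantified by LC-MS/MS against the 0 min sample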
[2] = tested on: Aβ40 in conditioned medium of cells stably expressing Amyloid Precursor Protein (APP); experiment: In vitro BACE cell-based assay (Aβ40 in conditioned medium, sandwich ELISA); settings: Homo sapiens, read-out: HEK cell assay;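 also: compounds added as a dilution series, secreted peptide quantified by europium time-resolved fluorescence readout, potency fitted from percent of control versus compound concentration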
[3] = molecular target: CYP3A4 (CYP3A) (Homo sapiens, UniProt P08684); experiment: in vitro; settings: microsomes, pH 7.4;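 also: inhibition of CYP3A-mediated 1-hydroxymidazolam formation after 10 min incubation with NADPH, quantified by HPLC MS relative to metabolite produced without test compound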
[4] = Microsomal stability assay, rat liver microsomes; settings: rat liver microsomal data;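 also: rat liver microsomes (0.25 mg/mL) with about 1 µM compound plus 1 mM NADPH, pH 7.4, 37 °C for 30 min, parent left measured by LC-MS/MS against 0 min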
[5] = tested on: Abeta peptide; experiment: In vivo inhibition of beta-secretase (reduction of Abeta peptide in brain and cerebrospinal fluid); set-up: species or system rat; settings: Rattus norvegicus, po, 4 h, orally administered at 30 mg/kg dose, measured after 4 hours;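 also: abeta peptide quantified by sandwich ELISA with electrochemiluminescence readout in rat brain supernatant or CSF, relative to vehicle-dosed control animals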
[6] = molecular target: Beta Secretase enzyme (BACE) (Homo sapiens, UniProt P56817); experiment: In vitro enzymatic BACE FRET (fluorescence resonance energy transfer) assay; format: biochemical; settings: read-out: BACE1 FRET assay;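 also: fluorescence read after 1 h with 50 nM quenched peptide substrate spanning the BACE cleavage site, in pH 4.2 acetate buffer containing 10% DMSO and nonionic detergent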
[7] = molecular target: CYP2D6 (Homo sapiens, UniProt P10635); experiment: CYP2D6 inhibition assay (bufuralol, pooled human liver microsomes)
[8] = rat cerebrospinal fluid, read-out: percent reduction of abeta peptide in the cerebrospinal fluid of the rat
[9] = rat brain, read-out: percent reduction of abeta peptide in the brain of the rat
[10] = 2D6 IC50 (uM), CYP enzyme inhibition

Beta Secretase enzyme (BACE), sequence (P56817 46-501): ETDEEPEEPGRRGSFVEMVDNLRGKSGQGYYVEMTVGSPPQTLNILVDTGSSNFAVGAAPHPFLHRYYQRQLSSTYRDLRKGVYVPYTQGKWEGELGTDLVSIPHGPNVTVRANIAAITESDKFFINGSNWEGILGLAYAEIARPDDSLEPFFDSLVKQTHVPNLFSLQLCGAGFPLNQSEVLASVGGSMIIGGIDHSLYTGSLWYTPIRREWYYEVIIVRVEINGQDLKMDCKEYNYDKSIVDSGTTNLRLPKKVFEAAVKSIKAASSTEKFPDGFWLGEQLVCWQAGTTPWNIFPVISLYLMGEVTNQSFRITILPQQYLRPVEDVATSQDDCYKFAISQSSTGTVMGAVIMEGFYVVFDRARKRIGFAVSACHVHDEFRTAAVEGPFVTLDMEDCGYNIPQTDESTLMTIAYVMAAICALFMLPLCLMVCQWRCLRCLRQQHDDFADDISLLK
CYP2D6, sequence (P10635 whole entry): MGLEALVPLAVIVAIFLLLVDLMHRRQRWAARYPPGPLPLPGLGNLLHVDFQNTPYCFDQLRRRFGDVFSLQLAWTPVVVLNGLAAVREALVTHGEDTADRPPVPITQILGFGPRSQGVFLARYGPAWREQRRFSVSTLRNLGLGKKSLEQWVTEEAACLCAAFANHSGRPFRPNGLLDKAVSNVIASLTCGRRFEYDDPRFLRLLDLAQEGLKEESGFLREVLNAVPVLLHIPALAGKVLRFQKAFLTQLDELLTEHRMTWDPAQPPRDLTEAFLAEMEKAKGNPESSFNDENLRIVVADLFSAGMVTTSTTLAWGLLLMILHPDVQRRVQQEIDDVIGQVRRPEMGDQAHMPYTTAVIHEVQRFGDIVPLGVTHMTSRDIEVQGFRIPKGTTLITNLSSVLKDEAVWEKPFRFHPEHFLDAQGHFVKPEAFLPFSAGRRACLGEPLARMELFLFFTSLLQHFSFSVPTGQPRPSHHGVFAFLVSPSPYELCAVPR
CYP3A4 (CYP3A), sequence (P08684 2-503): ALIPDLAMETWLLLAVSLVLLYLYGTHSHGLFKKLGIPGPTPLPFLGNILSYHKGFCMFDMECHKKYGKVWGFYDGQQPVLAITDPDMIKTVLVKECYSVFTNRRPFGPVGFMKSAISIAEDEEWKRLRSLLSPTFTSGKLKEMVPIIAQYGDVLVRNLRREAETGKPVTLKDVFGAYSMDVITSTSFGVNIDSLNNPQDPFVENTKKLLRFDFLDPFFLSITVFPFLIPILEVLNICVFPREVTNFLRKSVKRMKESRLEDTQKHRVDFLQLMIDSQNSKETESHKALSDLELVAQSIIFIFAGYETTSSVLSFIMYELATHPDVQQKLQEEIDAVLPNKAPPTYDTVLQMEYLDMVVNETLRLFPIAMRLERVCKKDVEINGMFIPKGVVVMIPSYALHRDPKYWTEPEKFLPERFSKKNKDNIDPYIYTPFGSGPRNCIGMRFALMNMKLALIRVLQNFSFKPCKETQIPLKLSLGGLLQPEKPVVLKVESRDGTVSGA

Row | Compound | HLM [1] [µL/min/mg] | IC50 ([2]; HEK293, Table 2, HEK cells) [nM] | IC50 [3] [nM] | RLM [4] [µL/min/mg] | inhibition in vivo at 30 mg/kg [5, 8] [%] | IC50 ([6]; Table 2) [nM] | IC50 ([7]; 2D6 IC50, CYP enzyme inhibition) [µM] | IC50 ([2]; HEK293, HEK cells) [nM] | inhibition in vivo at 30 mg/kg [5, 9] [%] | IC50 ([6]; BACE enzyme assay) [nM] | IC50 [7, 10] [µM]
1 | COCC(=O)N[C@@H](Cc1ccc(F)cc1)[C@H](O)CN[C@H]1CC2(CCC2)Oc2c1cc(CC(C)C)cc2-n1ccnc1 [Example 478] | 24 | 68 | 100 | 157 | 10 to 80 | 56 | 2.2 | – | – | – | –
2 | COCC(=O)N[C@@H](Cc1cc(F)cc(F)c1)[C@H](O)CN[C@H]1CC2(CCC2)Oc2c(-c3ccncc3)cc(CC(C)(C)C)cc21 [Example 488] | 31 | – | 100 | 82 | 10 to 80 | – | – | 10 | 5 to 80 | 9 | 1.6
3 | COCC(=O)N[C@@H](Cc1cccc(F)c1)[C@H](O)CN[C@H]1CC2(CCC2)Oc2c1cc(CC(C)(C)C)nc2-n1ccnc1 [Example 504] | 16 | – | 100 | 87 | 10 to 80 | – | – | 28 | – | 14 | 2.3
4 | CC(=O)N[C@@H](Cc1cccc(F)c1)[C@H](O)CN[C@H]1CC2(CCC2)Oc2c1cc(CC(C)(C)C)nc2-n1ccnc1 [Example 506] | 14 | – | 100 | 61 | 10 to 80 | – | – | 20 | – | 21 | 2.2
5 | CC(C)(C)Cc1cnc2c(c1)[C@@H](NC[C@@H](O)[C@H](Cc1ccc3c(c1)OCO3)NC(=O)[C@H]1CCO1)CC1(CCC1)O2 [Example 516, (2R)-N-((1S,2R)-1-(1,3-benzodioxol-5-ylmethyl)-3-(((4′S)-6′-(2,2-dimethylpropyl)-3′,4′-dihydrospiro[cyclobutane-1,2′-pyrano[2,3-b]pyridin]-4′-yl)amino)-2-hydroxypropyl)-2-oxetanecarboxamide] | 31 | – | 100 | 94 | 10 to 80 | – | – | 20 | – | 18 | 3.3
6 | CO[C@H](C)C(=O)N[C@@H](Cc1cccc(F)c1)[C@H](O)CN[C@H]1CC2(CCC2)Oc2c1cc(CC(C)C)cc2-n1ccnc1 [Example 521] | 27 | – | 100 | 142 | 10 to 80 | – | – | 15 | – | 19 | 1.9
7 | COC(OC)C(=O)N[C@@H](Cc1ccc2c(c1)OCO2)[C@H](O)CN[C@H]1CC2(CCC2)Oc2ncc(CC(C)(C)C)cc21 [Example 523, N-((1S,2R)-1-(1,3-benzodioxol-5-ylmethyl)-3-(((4′S)-6′-(2,2-dimethylpropyl)-3′,4′-dihydrospiro[cyclobutane-1,2′-pyrano[2,3-b]pyridin]-4′-yl)amino)-2-hydroxypropyl)-2,2-dimethoxyacetamide] | 37 | – | 100 | 94 | 10 to 80 | – | – | 33 | 5 to 80 | 19 | 5.4
8 | COCC(=O)N[C@@H](Cc1cc(F)cc(F)c1)[C@H](O)CN[C@H]1CC2(CCC2)Oc2c1cc(CC(C)(C)C)nc2-c1ccncc1 [Example 528] | 19 | – | 100 | 72 | 10 to 80 | – | – | 23 | – | 10 | 1.3
9 | COCC(=O)N[C@@H](Cc1cccc(F)c1)[C@H](O)CN[C@H]1CC2(CCC2)Oc2c(-c3ccncc3)cc(CC(C)(C)C)cc21 [Example 535] | 49 | – | 100 | 79 | 10 to 80 | – | – | 6 | – | 9 | 2.5
10 | COCC(=O)N[C@@H](Cc1ccccc1)[C@H](O)CN[C@H]1CC2(CCC2)Oc2c1cc(CC(C)(C)C)nc2-c1ccncc1 [Example 541] | 31 | – | 100 | 192 | 10 to 80 | – | – | 55 | – | 20 | 2.1
11 | CC(=O)N[C@@H](Cc1ccccc1)[C@H](O)CN[C@H]1CC2(CCC2)Oc2c1cc(CC(C)(C)C)nc2-c1ccncc1 [Example 542] | 36 | – | 200 | 193 | 10 to 80 | – | – | 103 | – | 24 | ≥ 27
